From patent US9872514B2, “Compounds, compositions, and methods for reducing or eliminating bitter taste” (Chromocell Corporation, priority 2010, dated 2018) come the findings set out here.

What all share (format): in vivo, humans
Experiment [1] deals with bitter taste of an aqueous solution of KCl. The experiment can be described thus: Sip and spit bitterness rating of aqueous KCl test solutions. The note with it: aqueous KCl 4.85 g/L, 1% EtOH, bitterness scored 0-15 vs KCl standard, dash = none of the tested conc.; for minimal effective concentration: Homo sapiens. On the procedure: An amount of this stock compound solution is then added to an aqueous KCl solution. Enough EtOH is then added to the resulting stock compound/KCl solution so that the final KCl test solution contains 1% EtOH. KCl solution standards were similarly prepared by dissolving various amounts of KCl in water and ethanol without adding any test compound.
The effect of the test compounds an the perception of the bitter taste of an aqueous solution of KCl in humans was evaluated using a “sip and spit” test as follows.
(§1) A set of KCl solution standards was developed and each standard solution was assigned a bitterness taste score of 0-15 (corresponding to aqueous KCl concentrations of 0 mM-120 mM). Panelists were trained to recognize these standards. In addition, before each day of testing, panelists were tested to see if they could determine differences in taste between the standard solutions. If a panelist was unable to recognize a change in KCl concentration, they were excluded from the panel for that day.
(§2) In a blind taste test, panelists were asked to compare the bitter taste of a small quantity (e.g., 8 ml) of each of the KCl Test Solutions to the taste of a KCl solution standard, without swallowing (see, e.g., Table 1). Specifically, panelists were asked to rate the bitterness of each KCl Test Solution on a scale of 0-15 using the same scale developed for the KCl solution standards. Each sample was tested in 2-4 discrete taste test experiments. Panelists were asked to rinse with water, eat a cracker, and wait approximately 10 minutes between samples.

Experiment [2] concerns bitter taste of KCl foodstuff slurries. The experiment can be described thus: Two-alternative forced choice (2AFC) sip and spit test of KCl turkey foodstuff slurries. Particulars: Homo sapiens, turkey slurry, 1.6% KCl, 2AFC vs KCl slurry standard, dash = none of the tested conc. As to the method: Edible KCl food compositions (“KCl test foodstuff slurries”) were prepared as follows. Dehydrated, salt-free turkey powder was weighed and mixed with various amounts of KCl and/or NaCl and then solubilized with boiling water to create a homogenized solubilized turkey slurry. Varying amounts of the test compounds were dissolved in an amount of ethanol or water (depending on the solubility of the compound) to create a 5 mg/mL stock compound solution. An amount of this stock compound solution was then added to the turkey slurry. Enough EtOH is then added to the resulting stock compound/turkey slurry so that the slurry contains 1% EtOH. The slurry was again homogenized by boiling and mixing and allowed to cool to yield the final KCl test foodstuff slurry for taste testing KCl foodstuff slurry standards were similarly prepared without any test compound.
The effect of the test compounds on the perception of the bitter taste of KCl foodstuff slurries in humans was evaluated using a two-alternative-forced-choice “sip and spit” test as follows.
In a blind taste test, panelists received two portions of turkey slurry—one portion being the KCl foodstuff slurry standard and the other being one of the KCl test foodstuff slurries (each prepared as described in Example 5). The panelists tasted each of the portions by sipping and spitting. Each sample was tested in 2-4 discrete taste test experiments. Panelists were asked to rinse with water, eat a cracker, and wait about 10 minutes between samples. In each case, the panelists were asked to compare the bitter taste of the two turkey samples to each other (i.e., panelists were asked to indicate which sample was less bitter).

The subject of experiment [3] is bitter taste of an aqueous solution of potassium lactate. The experiment can be described thus: Sip and spit bitterness rating of aqueous potassium lactate test solutions. Particulars: Homo sapiens; aqueous potassium lactate 41 g/L, 1% EtOH; dash = none of the tested conc.; read-out: Conc. Where Decrease in Bitter Taste Was Discerned. On the procedure:
as §1, §2
Edible potassium lactate solution compositions (“potassium lactate test solutions”) were prepared by first dissolving varying amounts of the test compounds in an amount of ethanol or water (depending on the solubility of the compound) to create a 5 mg/mL stock compound solution. An amount of this stock compound solution is then added to an aqueous potassium lactate solution. Enough EtOH is then added to the resulting stock compound/potassium lactate solution so that the final potassium lactate test solution contains 1% EtOH. Potassium lactate solution standards were similarly prepared by dissolving various amounts of potassium lactate in water and ethanol without adding any test compound.
The effect of the test compounds on the perception of the bitter taste of an aqueous solution of potassium lactate in humans was evaluated using the “sip and spit” test described in Example 2.

The mark [4] stands for this setting: read-out: Conc. Where Decrease in Bitter Taste Was Discerned.
The mark [5] stands for this setting: read-out: Conc. at Which At Least 50% of Panelist Discerned Decrease in Bitter Taste.
Setting [6] is: read-out: Conc. Where Decrease in Bitter Taste Discerned and p ≦ 0.1.

Molecules are shown by their SMILES. Where two headings read alike, the source gives them in different places.

Turning to `CC(=O)OC/C=C(\C)CCC=C(C)C` [Compound 21], the minimal effective concentration in experiment [1] (setting [4]) and in experiment [2] (setting [5]) was 10 µg/mL throughout.
Regarding `CC(=O)O[C@@H]1C[C@@H]2CC[C@@]1(C)C2(C)C` [Compound 88], the minimal effective concentration in experiment [1] (setting [6]) and in experiment [2] (setting [5]) was 1 µg/mL in each case.
In the case of `CC(=O)Oc1c(C)c(C)c2c(c1C)CC[C@@](C)(CCCC(C)CCCC(C)CCCC(C)C)O2` (stereo partly drawn) [Compound 45], in experiment [1] (setting [4]), the minimal effective concentration worked out at 1 µg/mL.
Regarding `CCCCC(=O)OCCC(C)CCC=C(C)C` (stereo not drawn) [Compound 12], the minimal effective concentration in experiment [1] (setting [4]) worked out at 10 µg/mL.
Turning to `CC(=O)CC/C=C(\C)CCC=C(C)C` [Compound 29], in experiment [1] (setting [4]), the minimal effective concentration was 1 µg/mL.
With `C/C=C/C(=O)C1=C(C)CCCC1(C)C` [Compound 1], the minimal effective concentration in experiment [1] (setting [6]) and in experiment [1] (setting [4]) was 0.1 µg/mL in each case.
Consider `C/C=C/c1ccc2c(c1)OCO2` [Compound 118], for which the minimal effective concentration in experiment [3] came to 1 µg/mL.
Turning to `O=C1C[C@@H](c2ccccc2)Oc2cc(O)cc(O)c21` [Compound 97], in experiment [1] (setting [4]), the minimal effective concentration stood at 1 µg/mL.
Take `O=C(O)c1ccccc1` [Compound 54]: in experiment [1], the “Conc. Where Decrease in Bitter Taste Was Discerned” value was 10 ppm.
For the compound `CCCCOC(=O)c1ccc(O)cc1` [Compound 63], the minimal effective concentration in experiment [1] (setting [6]) turned out to be 1 µg/mL; in experiment [2] (read-out: Conc. at Which At Least 50% of Panelist Discerned Decrease in Bitter Taste and p ≦ 0.1), 30 µg/mL.
With `Oc1cc(O)c2c(c1)O[C@@H](c1cc(O)c(O)c(O)c1)[C@H](O)C2` [Compound 106], the minimal effective concentration in experiment [1] (setting [4]) was 1 µg/mL.
As to `COC(=O)c1ccccc1OC` [Compound 68], the minimal effective concentration in experiment [1] (setting [4]) came to 10 µg/mL.
In the case of `O=C(O[C@@H]1Cc2c(O)cc(O)cc2O[C@@H]1c1cc(O)c(O)c(O)c1)c1cc(O)c(O)c(O)c1` [Compound 108], the minimal effective concentration in experiment [1] (setting [4]) amounted to 1 µg/mL.
`CC(=O)OCC1=CC[C@@H]2C[C@H]1C2(C)C` [Compound 94]: the minimal effective concentration in experiment [1] (setting [4]) came to 10 µg/mL.
As for `C[C@@H]1[C@@H](O)C[C@H]2C[C@@H]1C2(C)C` [Compound 90], in experiment [1] (setting [4]), the minimal effective concentration amounted to 1 µg/mL.
With `C=C1CC[C@H]2O[C@]2(C)CC[C@@H]2[C@@H]1CC2(C)C` [Compound 121], the minimal effective concentration in experiment [1] (setting [6]) and in experiment [1] (setting [4]) was 40 µg/mL in each case.
In the case of `COc1ccc2c(c1)[nH]c1c(C)nccc12` [Compound 130], the minimal effective concentration in experiment [1] (setting [4]) is 40 µg/mL.
Same read-out and setting: to `CC(CC=O)CCCC(C)(C)O` (stereo not drawn) [Compound 17] belongs 1 µg/mL; to `CC(=O)Oc1c(C)c(C)c2c(c1C)CCC(C)(CCCC(C)CCCC(C)CCCC(C)C)O2` (stereo not drawn) [Compound 50], 1 µg/mL.
Regarding `CC(C)C(=O)OCc1ccc2c(c1)OCO2` [Compound 117], in experiment [1] (setting [4]), the minimal effective concentration is 10 µg/mL.
With `O=C(O)c1ccc(O)cc1` [Compound 58], the minimal effective concentration in experiment [1] (setting [6]) and in experiment [1] (setting [4]) was 10 µg/mL each time.
Take `COc1cc(OC)c2c(=O)cc(-c3ccccc3)oc2c1` [Compound 100]: in experiment [1] (setting [4]), the minimal effective concentration came out at 10 µg/mL.
Regarding `O=c1c(O)c(-c2ccc(O)c(O)c2)oc2cc(O)cc(O)c12` [Compound 111], the minimal effective concentration in experiment [1] (setting [6]) came to 10 µg/mL; in experiment [2] (setting [5]), 1 µg/mL.
In the case of `CC(C)=CCC/C(C)=C\COC(=O)CC(C)C` [Compound 25], the minimal effective concentration in experiment [1] (setting [6]) is 1 µg/mL.
As for `CC(O)c1ccccc1` (stereo not drawn) [Compound 71], the minimal effective concentration in experiment [1] (setting [6]) was determined as 1 µg/mL.
Turning to `CC(=O)CCC1=C(C)CCCC1(C)C` [Compound 4], in experiment [1] (setting [6]), the minimal effective concentration is 1 µg/mL.
Take `CC(=O)/C=C/C1C(C)=CCCC1(C)C` (stereo not drawn) [Compound 5]: the minimal effective concentration in experiment [1] (setting [6]) and in experiment [1] (setting [4]) was 0.1 µg/mL in each case.
As to `CCCC(=O)OC/C=C(/C)CCC=C(C)C` [Compound 33], the minimal effective concentration in experiment [1] (setting [4]) was 1 µg/mL.
As for `CC(C)=CCCC(C)CCOC=O` (stereo not drawn) [Compound 8], the minimal effective concentration in experiment [1] (setting [4]) worked out at 10 µg/mL; in experiment [2] (setting [5]) it was 1 µg/mL.
Take `Cc1cc(O)cc2c1O[C@](C)(CCC[C@H](C)CCC[C@H](C)CCCC(C)C)CC2` [Compound 49]: the minimal effective concentration in experiment [1] (setting [4]) came to 10 µg/mL.
For the compound `CC(C)CC(=O)O[C@@H]1C[C@@H]2CC[C@@]1(C)C2(C)C` [Compound 78], the minimal effective concentration in experiment [1] (setting [4]) came to 1 µg/mL.
Consider `CC(=O)OC1C2(C)CCC(C2)C1(C)C` (stereo not drawn) [Compound 81], for which the minimal effective concentration in experiment [1] (setting [4]) stood at 10 µg/mL.
As to `CC(C)=CCC/C(C)=C/COC(=O)CC(C)C` [Compound 24], in experiment [1] (setting [4]), the minimal effective concentration worked out at 10 µg/mL.
Still for that read-out and setting: to `CC(C)=CCCC(C)CC=O` (stereo not drawn) [Compound 13] belongs 1 µg/mL; to `CCCOC(=O)c1ccccc1` [Compound 56], 1 µg/mL; to `O=C(/C=C/C=C/c1ccc2c(c1)OCO2)N1CCCCC1` [Compound 113], 1 µg/mL.
On the same count and under the same terms, in the case of `Oc1cc(O)c2c(c1)O[C@H](c1ccc(O)c(O)c1)[C@@H](O)C2` [Compound 104] it was 10 µg/mL.
Take `CCOC(=O)c1ccc(O)cc1` [Compound 62]: the minimal effective concentration in experiment [1] (setting [4]) was 10 µg/mL.
Consider `COC(CC(C)CCCC(C)(C)O)OC` (stereo not drawn) [Compound 18], for which the minimal effective concentration in experiment [1] (setting [4]) came out at 10 µg/mL.
The same measure, in the same setting: to `CC(C)=CCCC(C)CCO` (stereo not drawn) [Compound 7] belongs 10 µg/mL.
As to `CCCC(=O)OC/C=C(\C)CCC=C(C)C` [Compound 23], the minimal effective concentration in experiment [1] (setting [6]) stood at 1 µg/mL.
Consider `COC(=O)c1ccc(O)cc1` [Compound 61], for which the minimal effective concentration in experiment [1] (setting [4]) turned out to be 1 µg/mL.
For the compound `O=C1CC(C(=O)O)C(C(=O)O)O1` (stereo not drawn) [Compound 133], the minimal effective concentration in experiment [1] (setting [6]) and in experiment [1] (setting [4]) was 2 µg/mL throughout.
Consider `COc1ccc(-c2cc(=O)c3c(OC)c(OC)c(OC)cc3o2)cc1` [Compound 99], for which the minimal effective concentration in experiment [1] (setting [4]) amounted to 1 µg/mL.
In the case of `CC1(C)[C@H]2CC[C@H](CO)[C@@H]1C2` [Compound 92], the minimal effective concentration in experiment [1] (setting [6]) and in experiment [1] (setting [4]) was 1 µg/mL each time.
On to `O=c1cc(-c2ccccc2)oc2cc(O)ccc12` [Compound 101], for which the minimal effective concentration in experiment [1] (setting [4]) came out at 1 µg/mL.
`CC(=O)OCCC(C)CCC=C(C)C` (stereo not drawn) [Compound 9]: the minimal effective concentration in experiment [1] (setting [4]) was 10 µg/mL.
Take `CC(=O)CCC1C(C)=CCCC1(C)C` (stereo not drawn) [Compound 6]: in experiment [1] (setting [6]), the minimal effective concentration turned out to be 1 µg/mL.
Take `O=C(O)c1ccc(O)cc1O` [Compound 59]: the minimal effective concentration in experiment [1] (setting [4]) was found to be 1 µg/mL.
With `COc1cc(-c2oc3cc(O)cc(O)c3c(=O)c2O)ccc1O` [Compound 102], the minimal effective concentration in experiment [1] (setting [6]) was 1 µg/mL; in experiment [1] (setting [4]), 1 µg/mL; in experiment [3] it was 1 µg/mL; in experiment [2] (setting [5]) it was 10 µg/mL.
Consider `O=C(O[C@@H]1Cc2c(O)cc(O)cc2O[C@@H]1c1ccc(O)c(O)c1)c1cc(O)c(O)c(O)c1` [Compound 107], for which the minimal effective concentration in experiment [1] (setting [4]) was determined as 10 µg/mL.
As for `COc1c(C(=O)CC(=O)c2ccccc2)ccc2occc12` [Compound 132], the minimal effective concentration in experiment [1] (setting [4]) is 1 µg/mL.
